Data as given in PMC11378297, “Discovery and Profiling of New Multimodal Phenylglycinamide Derivatives as Potent Antiseizure and Antinociceptive Drug Candidates” (ACS Chemical Neuroscience, 2024).

Key:
[1] = target: T1, Cav1.2 (h) calcium ion channel (Homo sapiens, UniProt Q13936); assay: Cav1.2 (h) calcium ion channel cell-based antagonist calcium flux assay; settings: HEK293, human recombinant HEK-293 cell, read-out: % inhibition of control agonist response
T1 construct: Eurofins
Procedure: (§1) The current body of literature consistently reports that both sodium (Navx) and Cav1.2 calcium ion channels can be involved in the pathogenesis of epilepsy[67]−[69] and neuropathic pain.[70]−[73] […] Therefore, we performed binding and functional studies toward sodium (site 2) and calcium Cav1.2 channels at concentrations of 10 μM for (R)-31−(R)-33.
(§2) Using previously described testing methodologies, binding/functional tests were conducted on a commercial basis at Eurofins Laboratories (Poitiers, France) and Eurofins Panlabs Discovery Services Taiwan, Ltd. (New Taipei City, Taiwan); see Table S9 for more information.
Table S9. Radioligand binding and functional assays.
Cav1.2 (L-type) (h) calcium ion channel cell-based antagonist calcium flux assay […]
(§3) Assays were performed commercially in Eurofins Laboratories (Poitiers, France) or Eurofins Panlabs Discovery Services
(§4) Taiwan, Ltd. (New Taipei City, Taiwan).

TRPV1 (VR1) (h) = target: T2, TRPV1 (VR1) (h) (Homo sapiens, UniProt Q8NER1); assay: TRPV1 (VR1) (h) (antagonist effect); format: cell-based; settings: human recombinant CHO cells, antagonist effect; for Kb: read-out: KB (dissociation constant)
T2 construct: host or cells: CHO cells
Procedure: Further in vitro functional studies confirmed TRPV1 antagonist activity for (R)-31–(R)-33.
as §2
(§5) Table S9. Radioligand binding and functional assays. […]
TRPV1 (VR1) (h) (antagonist effect) […]
as §3, §4

[2] = test system: neuromuscular strength, mice; assay: grip strength test; format: in vivo, mouse
Procedure: Prior to the ivPTZ test, a grip strength test was conducted to evaluate the tested eutomers’ acute impact on neuromuscular strength.
(§6) 30 min prior to the testing, eutomers (R)-31, (R)-32, and (R)-33 were given i.p. after being suspended in a 1% Tween 80 solution. To reduce the number of animals utilized, neuromuscular strength measurements were made right before the seizure threshold test. The grip-strength test and the timed ivPTZ test experimental protocols were covered in full elsewhere.[87]
Figure S3. Effects of (R)-31, (R)-32, and (R)-33 on neuromuscular strength in mice. The compounds were administered i.p., 30 min before the test. Control animals received vehicle. Data are presented as mean ± SD grip strengths in millinewtons per gram of mouse body weight (mN/g); n = 10 animals. The statistical significance was evaluated using the Student’s t test (GraphPad Prism 8). […]

[3] = test system: ivPTZ seizure threshold, mice; assay: timed ivPTZ seizure threshold test; format: in vivo, mouse; settings: for effect on the threshold for the onset of any of the studied end points (ivPTZ): 30 min before test
Procedure: The effects of (R)-31, (R)-32, and (R)-33 on the thresholds for the first myoclonic twitch, generalized clonus with loss of righting reflex, and forelimb tonus in the timed ivPTZ seizure test in mice were evaluated in the following step of pharmacological characterization. […] It should be noted that the ivPTZ seizure test is an extremely sensitive method for determining the seizure threshold in rodents.[47] In this model, (R)-31 at a dose of 50 mg/kg had no effect on the threshold for the onset of any of the studied end points. […] Compounds (R)-32 and (R)-33 were tested at a dose of 50 mg/kg only. […] (R)-33 was ineffective in the ivPTZ seizure threshold test.
Figure 2 Effect of eutomers (R)-31, (R)-32, and (R)-33 on the thresholds for the onset of (A) myoclonic twitch, (B) generalized clonus, and (C) forelimb tonic extension in the timed ivPTZ test in mice. (R)-31, (R)-32, and (R)-33 were administered, i.p., 30 min before the seizure test. Control animals received vehicle. Data are presented as means + SD in mg/kg of PTZ necessary to induce each of the three end points (n = 7–14 animals). Statistical significance was evaluated using Student’s t-test: **p < 0.01, ****p < 0.0001 vs the vehicle-treated group (GraphPad Prism 8.4.3).
as §6

scPTZ seizures, mice = assay: subcutaneous pentylenetetrazole (scPTZ) seizure test; format: in vivo, mouse; settings: 100 mg/kg i.p., 0.5 h; for protection in the scPTZ seizures: four mice
Procedure: R-enantiomers (R)-31–(R)-33 due to broad and potent activity in both MES and 6 Hz (32 mA) were further evaluated in the scPTZ seizures. […] (i.e., KA-104, Figure 1) to acetyl moiety causes almost complete loss of protection against PTZ seizures.
All substances were suspended in Tween 80 (1% aqueous solution) and administered i.p. as a single injection at a volume of 10 mL/kg. On each day of experimentation, fresh solutions were prepared. The detailed in vivo procedures are described elsewhere: the maximal electroshock seizure test (MES),[83] the subcutaneous pentylenetetrazole seizure test (scPTZ),[84] the 6 Hz psychomotor seizure model (32 mA and 44 mA),[85] and the chimney test.[86] The reference ASMs were purchased from commercial suppliers: VPA (Sigma-Aldrich, St. Louis, MO, USA), LCS and LEV (UCB Pharma, Braine l’Alleud, Belgium).

Na+ channel (site 2) = Na+ channel (site 2) radioligand binding; settings: 10 μM, rat cerebral cortex
Procedure: as §1, §2, §5, §3, §4

T1 sequence (Q13936 whole entry): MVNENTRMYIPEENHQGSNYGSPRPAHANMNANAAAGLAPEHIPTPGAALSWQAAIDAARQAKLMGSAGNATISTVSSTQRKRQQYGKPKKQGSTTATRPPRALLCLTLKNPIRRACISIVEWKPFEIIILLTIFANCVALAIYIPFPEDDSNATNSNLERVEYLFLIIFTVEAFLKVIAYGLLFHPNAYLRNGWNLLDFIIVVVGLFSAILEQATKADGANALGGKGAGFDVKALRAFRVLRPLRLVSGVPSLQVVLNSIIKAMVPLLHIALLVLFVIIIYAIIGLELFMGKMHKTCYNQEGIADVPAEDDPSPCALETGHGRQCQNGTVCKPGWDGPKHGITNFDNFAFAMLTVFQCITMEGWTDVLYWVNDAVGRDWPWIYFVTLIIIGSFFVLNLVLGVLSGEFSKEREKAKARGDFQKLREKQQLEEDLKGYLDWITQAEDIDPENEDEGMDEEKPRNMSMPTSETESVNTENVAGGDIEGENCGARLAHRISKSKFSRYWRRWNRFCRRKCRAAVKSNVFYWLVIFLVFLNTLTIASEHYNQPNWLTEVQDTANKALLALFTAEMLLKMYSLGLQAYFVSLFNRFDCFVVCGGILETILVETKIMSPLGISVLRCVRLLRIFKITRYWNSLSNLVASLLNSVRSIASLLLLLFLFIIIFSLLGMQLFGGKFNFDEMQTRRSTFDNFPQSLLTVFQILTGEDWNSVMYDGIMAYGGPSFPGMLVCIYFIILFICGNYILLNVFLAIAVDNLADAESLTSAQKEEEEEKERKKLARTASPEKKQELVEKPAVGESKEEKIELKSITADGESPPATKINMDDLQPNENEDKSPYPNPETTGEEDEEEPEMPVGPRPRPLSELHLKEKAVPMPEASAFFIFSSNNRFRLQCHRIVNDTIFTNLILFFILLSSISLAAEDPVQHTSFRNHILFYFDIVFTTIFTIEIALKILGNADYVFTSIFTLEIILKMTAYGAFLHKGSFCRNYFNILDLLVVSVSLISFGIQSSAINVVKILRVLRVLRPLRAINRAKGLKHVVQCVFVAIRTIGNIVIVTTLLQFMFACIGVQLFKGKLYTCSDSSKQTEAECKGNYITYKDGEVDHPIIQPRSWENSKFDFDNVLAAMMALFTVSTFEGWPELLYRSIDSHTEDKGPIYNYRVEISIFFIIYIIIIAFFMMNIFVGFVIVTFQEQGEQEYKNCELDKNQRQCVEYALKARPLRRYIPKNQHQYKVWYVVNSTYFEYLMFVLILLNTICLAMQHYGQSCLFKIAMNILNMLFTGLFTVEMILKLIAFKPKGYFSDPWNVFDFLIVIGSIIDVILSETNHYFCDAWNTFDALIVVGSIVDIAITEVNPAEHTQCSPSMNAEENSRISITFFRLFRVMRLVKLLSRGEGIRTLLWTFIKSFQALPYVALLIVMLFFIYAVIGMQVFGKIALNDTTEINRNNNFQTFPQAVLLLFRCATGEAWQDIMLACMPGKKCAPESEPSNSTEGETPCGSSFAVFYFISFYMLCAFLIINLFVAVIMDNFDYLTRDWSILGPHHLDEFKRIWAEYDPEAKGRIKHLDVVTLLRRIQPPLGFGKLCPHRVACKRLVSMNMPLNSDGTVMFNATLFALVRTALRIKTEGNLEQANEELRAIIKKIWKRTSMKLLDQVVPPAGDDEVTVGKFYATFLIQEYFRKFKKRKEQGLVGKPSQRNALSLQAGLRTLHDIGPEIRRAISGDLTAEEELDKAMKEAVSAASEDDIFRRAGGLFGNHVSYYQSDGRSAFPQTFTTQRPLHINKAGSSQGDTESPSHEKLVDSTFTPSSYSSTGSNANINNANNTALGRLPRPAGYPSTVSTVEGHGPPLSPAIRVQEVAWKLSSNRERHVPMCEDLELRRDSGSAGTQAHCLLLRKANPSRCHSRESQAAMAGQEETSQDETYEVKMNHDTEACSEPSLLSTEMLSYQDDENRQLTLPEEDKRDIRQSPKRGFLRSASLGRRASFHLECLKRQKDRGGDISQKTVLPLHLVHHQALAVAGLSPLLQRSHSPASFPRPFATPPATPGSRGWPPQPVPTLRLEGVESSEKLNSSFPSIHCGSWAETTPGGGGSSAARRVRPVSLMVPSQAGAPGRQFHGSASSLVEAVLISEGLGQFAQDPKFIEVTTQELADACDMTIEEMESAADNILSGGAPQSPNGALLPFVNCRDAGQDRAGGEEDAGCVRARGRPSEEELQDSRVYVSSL
T1 sequence (Q08289 whole entry partner): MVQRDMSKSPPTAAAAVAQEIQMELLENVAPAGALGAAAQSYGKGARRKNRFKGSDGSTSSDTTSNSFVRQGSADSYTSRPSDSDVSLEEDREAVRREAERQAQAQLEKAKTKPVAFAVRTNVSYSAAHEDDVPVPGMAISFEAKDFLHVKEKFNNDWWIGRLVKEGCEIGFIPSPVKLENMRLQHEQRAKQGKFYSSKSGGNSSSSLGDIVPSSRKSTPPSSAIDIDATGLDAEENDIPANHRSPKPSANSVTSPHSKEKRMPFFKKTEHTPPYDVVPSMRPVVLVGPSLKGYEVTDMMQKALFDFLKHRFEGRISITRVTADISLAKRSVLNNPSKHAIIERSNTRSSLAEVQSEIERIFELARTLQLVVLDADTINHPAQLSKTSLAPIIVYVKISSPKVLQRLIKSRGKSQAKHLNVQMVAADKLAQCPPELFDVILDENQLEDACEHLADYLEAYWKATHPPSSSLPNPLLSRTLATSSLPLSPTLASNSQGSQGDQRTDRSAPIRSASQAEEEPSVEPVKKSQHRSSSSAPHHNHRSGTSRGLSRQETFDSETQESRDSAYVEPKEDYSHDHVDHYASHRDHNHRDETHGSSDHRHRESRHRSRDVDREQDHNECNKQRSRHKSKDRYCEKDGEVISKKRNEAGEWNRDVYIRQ
T1 sequence (P54289 25-946 partner limits assumed): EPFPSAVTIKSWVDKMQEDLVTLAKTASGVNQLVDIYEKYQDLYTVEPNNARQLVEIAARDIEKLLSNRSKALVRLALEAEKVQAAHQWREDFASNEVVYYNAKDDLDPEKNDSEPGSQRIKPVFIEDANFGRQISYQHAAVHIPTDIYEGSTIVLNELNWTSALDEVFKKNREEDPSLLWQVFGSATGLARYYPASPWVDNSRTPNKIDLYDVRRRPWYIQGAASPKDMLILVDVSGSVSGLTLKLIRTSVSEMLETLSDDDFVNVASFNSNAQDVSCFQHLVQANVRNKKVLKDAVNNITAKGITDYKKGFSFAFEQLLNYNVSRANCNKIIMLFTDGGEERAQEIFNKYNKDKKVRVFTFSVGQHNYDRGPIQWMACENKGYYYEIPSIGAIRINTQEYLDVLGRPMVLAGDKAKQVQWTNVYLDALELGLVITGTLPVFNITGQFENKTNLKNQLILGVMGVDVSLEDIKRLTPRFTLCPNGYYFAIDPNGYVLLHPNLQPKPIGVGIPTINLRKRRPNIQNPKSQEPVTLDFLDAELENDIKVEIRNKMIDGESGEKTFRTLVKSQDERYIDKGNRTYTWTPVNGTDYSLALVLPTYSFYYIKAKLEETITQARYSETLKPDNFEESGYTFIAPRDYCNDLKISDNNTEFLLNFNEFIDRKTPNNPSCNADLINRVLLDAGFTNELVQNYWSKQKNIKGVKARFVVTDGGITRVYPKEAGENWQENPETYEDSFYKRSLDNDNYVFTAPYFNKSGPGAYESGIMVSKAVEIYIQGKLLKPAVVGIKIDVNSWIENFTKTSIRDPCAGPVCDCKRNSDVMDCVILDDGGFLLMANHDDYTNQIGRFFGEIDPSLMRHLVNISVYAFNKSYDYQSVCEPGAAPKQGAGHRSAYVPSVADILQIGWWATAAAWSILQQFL
T1 sequence (P54289 947-1103 partner limits assumed): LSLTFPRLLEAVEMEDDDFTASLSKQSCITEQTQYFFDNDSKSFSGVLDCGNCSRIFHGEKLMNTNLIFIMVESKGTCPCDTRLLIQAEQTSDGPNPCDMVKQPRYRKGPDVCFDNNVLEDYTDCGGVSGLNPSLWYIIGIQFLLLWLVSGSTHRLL
T2 sequence (Q8NER1 whole entry): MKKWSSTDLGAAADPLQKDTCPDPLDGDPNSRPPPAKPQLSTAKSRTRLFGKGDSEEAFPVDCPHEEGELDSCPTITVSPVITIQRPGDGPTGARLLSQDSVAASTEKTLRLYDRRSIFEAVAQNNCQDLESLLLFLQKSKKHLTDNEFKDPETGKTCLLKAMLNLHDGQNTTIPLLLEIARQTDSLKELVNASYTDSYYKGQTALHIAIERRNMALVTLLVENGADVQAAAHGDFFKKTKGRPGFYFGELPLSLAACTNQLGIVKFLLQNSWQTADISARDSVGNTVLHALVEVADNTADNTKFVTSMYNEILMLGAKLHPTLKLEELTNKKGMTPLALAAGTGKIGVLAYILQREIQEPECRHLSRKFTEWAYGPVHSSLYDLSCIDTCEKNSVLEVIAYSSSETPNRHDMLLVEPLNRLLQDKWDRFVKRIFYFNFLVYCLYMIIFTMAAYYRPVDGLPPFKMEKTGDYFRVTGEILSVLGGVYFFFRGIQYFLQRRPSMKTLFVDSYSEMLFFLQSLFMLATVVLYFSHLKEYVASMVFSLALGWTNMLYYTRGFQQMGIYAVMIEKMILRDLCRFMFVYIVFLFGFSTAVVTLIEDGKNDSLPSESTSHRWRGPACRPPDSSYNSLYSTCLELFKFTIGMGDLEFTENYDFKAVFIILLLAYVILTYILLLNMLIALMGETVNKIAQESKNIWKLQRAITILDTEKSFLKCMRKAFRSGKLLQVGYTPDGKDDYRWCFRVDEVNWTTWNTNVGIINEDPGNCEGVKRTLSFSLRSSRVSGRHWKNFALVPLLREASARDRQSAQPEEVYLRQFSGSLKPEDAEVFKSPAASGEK

Row | Structure (SMILES) | inhibition at 10 µM [1] | IC50 (TRPV1 (VR1) (h)) | Kb (TRPV1 (VR1) (h)) | effect on neuromuscular strength (grip strength test) ([2]; 50 mg/kg i.p.) | effect on neuromuscular strength (grip strength test) ([2]; 100 mg/kg i.p.) | effect on the threshold for the onset of any of the studied end points (ivPTZ) ([3]; 50 mg/kg i.p.) | threshold for generalized clonic seizure (ivPTZ) ([3]; 100 mg/kg i.p., p < 0.01) | protection in the scPTZ seizures (scPTZ seizures, mice) | scPTZ: number of mice protected/number of mice tested (scPTZ seizures, mice) | % inhibition of control specific binding (Na+ channel (site 2)) | threshold for the onset of forelimb tonus (ivPTZ) ([3]; 50 mg/kg i.p.) | threshold for the first myoclonic twitch (ivPTZ) ([3]; 50 mg/kg i.p., p < 0.0001) | threshold for generalized clonus (ivPTZ) ([3]; 50 mg/kg i.p., p < 0.01)
1 | CC(=O)N[C@@H](C(=O)N1CCN(c2cccc(C(F)(F)F)c2)CC1)c1ccccc1 [(R)-31, (R)-N-(2-Oxo-1-phenyl-2-(4-(3-(trifluoromethyl)phenyl)piperazin-1-yl)ethyl)acetamide] | 75% | 3500 nM | 460 nM | did not produce any significant effects | did not produce any significant effects | had no effect | significantly raised the threshold | 25% | 1/4 | 33.9 (10) % |  |  | 
2 | CC(=O)N[C@@H](C(=O)N1CCN(c2cccc(OC(F)(F)F)c2)CC1)c1ccccc1 [(R)-32, (R)-N-(2-Oxo-1-phenyl-2-(4-(3-(trifluoromethoxy)phenyl)piperazin-1-yl)ethyl)acetamide] | 31% | 11000 nM | 1400 nM | did not produce any significant effects |  |  |  | ineffective | 0/4 | 40.7 (10) % | did not affect the threshold | significantly increased the thresholds | significantly increased the thresholds
3 | CC(=O)N[C@@H](C(=O)N1CCN(c2cccc(SC(F)(F)F)c2)CC1)c1ccccc1 [(R)-33, (R)-N-(2-Oxo-1-phenyl-2-(4-(3-((trifluoromethyl)thio)phenyl)piperazin-1-yl)ethyl)acetamide] | 49% | 13000 nM | 1600 nM | did not produce any significant effects |  | ineffective |  | ineffective | 0/4 | 63.2 (10) % |  |  | 
